From patent publication US20120190613A1, “ECHINOCANDIN DERIVATIVES” (priority 2009, published 2012) come the findings set out here.

Values after ≈ are worked out from the molar mass of the structure shown. Marks after values point to notes of the source that are not given here.

Assay [1] relates to C. parapsilosis 630 ATCC 90018. The experiment in a line: MIC by broth microdilution against C. parapsilosis. Format: cell-based. To be noted: 48 hr. On the procedure:
(§1) MIC values (μg/mL) of echinocandin class compounds of the invention against various Candida and Aspergillus species were obtained as follows. Test organisms were obtained from the American Type Culture Collection (Manassas, Va.). The isolates were maintained at −80 ° C., then thawed and sub-cultured one day prior to testing (seven days for Aspergillus strains).
(§2) The mouse serum was heat-inactivated for 30 minutes at 56° C., and filtered through a 0.2 μm low protein binding filter unit prior to use.
(§3) MIC values were determined using broth microdilution. The wells of the daughter plates ultimately contained 180 μL of RPMI-1640 medium with and without mouse serum, 10 μL of drug solution, and 10 μL of yeast or fungal inoculum.
(§4) Prior to susceptibility testing, fungal isolates were removed from frozen storage, thawed at room temperature, and subcultured to Potato Dextrose Agar. The Candida strains were incubated overnight at 35° C. and the Aspergillus strains for 7 days at 25° C. Yeast colonies were inoculated into sterile saline and adjusted to the turbidity of a 0.5 McFarland standard. Inoculums from Aspergillus strains were prepared by washing the surface of an agar slant with 1 mL of sterile saline containing 0.05% of Tween 20. The resulting colloidial suspensions were adjusted to an optical density of 0.09 to 0.11 at λ 625 nm.
(§5) Both the yeast and filamentous fungus suspensions were further diluted 1:100 in RPMI-1640 medium and dispensed into sterile reservoirs and used to inoculate the daughter plates. 10 μL of standardized inoculum was delivered into each well. This yielded a final cell concentration in the daughter plates of approximately 2.5×10^3 colony-forming units/mL. Plates were incubated at 35° C. for approximately 48 hr.
(§6) Following incubation, microplates were viewed from the bottom using a plate viewer.

For assay [2], the system named is C. albicans R303. Nature of the assay: Mouse candidiasis infection model, C. albicans density in kidneys. Format: in vivo, female CD-1 mice. The following applies: First run; for Difference from 24-hr control / Mean log10 CFU/kidneys (±SD): kidneys at 24 hr; for Mean log10 CFU/kidneys (±SD): neutropenic mice. The protocol: The objective of these studies was to evaluate the efficacy of test compounds in the mouse candidiasis infection model.
The strain, C. albicans R303 was transferred from frozen storage onto Sabauroud dextrose agar (SDA) plates and grown for ˜24 hr at 35° C. The inoculum was prepared by transferring colonies from the plate to phosphate buffered saline (PBS) and the concentration adjusted to 10^6 CFU/mL with the aid of a spectrophotometer. The stock was diluted 1:9 to prepare the inoculum. Prior to each run the concentration was verified using the dilution plate count method.
The female CD-1 mice used in this study were obtained from Charles River Laboratories, Portage, MI. The animals were approximately seven-weeks-old at the start of the study and weighed about 16-26 g.
In one approach, mice were made neutropenic with IP injections of cyclophosphamide (150 mg/kg in 10 mL/kg) at 4 and 1 day before inoculation. Each animal was inoculated with the appropriate concentration by injecting 0.1 mL of inoculum into a tail vein. The test compounds were administered IP at 2 hr after infection.
The kidneys were collected from four mice in control group 1 (untreated) at 2 hr after infection, and from the remaining mice in the study at 24 hr after infection. Kidneys were removed aseptically from each mouse and were combined in a sterile tube. An aliquot (2 mL) of sterile PBS was added to each tube and the contents homogenized with a tissue homogenizer (Polytron 3100). Serial dilutions of the tissue homogenates were conducted and 0.1 mL aliquots were spread on SDA plates and the plates incubated at 35° C. overnight. The CFU/kidneys were determined from colony counts. Data were analyzed using one-way ANOVA with the Tukey-Kramer Multiple Comparisons Test (GraphPad InStat version 3.06, GraphPad Software, San Diego, Calif.).
Treatments were administered at 2 hr after infection with 2.1×10^5 CFU/mL of the organism. Data are the means of four mice.
Treatments were administered at 2 hr after infection with 6.4×10^5 CFU/mL of the organism. Data are the means of four mice.
Treatments were administered at 2 hr after infection with 3.8×10^5 CFU/mL of the organism. Data are the means of four mice.
Treatments were administered at 2 hr after infection with 3.8×10^5 CFU/rnL of the organism. Data are the means of four mice.

For assay [3], the system named is A. flavus 626 ATCC 64025. Nature of the assay: MIC by broth microdilution against A. flavus. Format: cell-based. To be noted: 48 hr, growth reduction of 50%. The protocol: as §1, §2, §3, §4, §5, §6
Assay [4] deals with C. albicans 104 ATCC 90028. The experiment in a line: MIC by broth microdilution against C. albicans. The following applies: 48 hr. Format: cell-based. On the procedure: as §1, §2, §3, §4, §5, §6
(Dilution methods test growth across graded concentrations, often in twofold steps.)

Setting [5] is: 1 mg/kg IP 2 hr after infection.
Setting [6] is: 5 mg/kg IP 2 hr after infection.

Turning to `CCC(C)CC(C)CCCCCCCCC(=O)NC1CC(O)C(NCCNC(=O)OCCOC)NC(=O)C2C(O)CCN2C(=O)C(C(O)CCNC(=O)OCCOC)NC(=O)C(C(O)C(O)c2ccc(O)cc2)NC(=O)C2CC(O)CN2C(=O)C(C(C)O)NC1=O` (stereo not drawn) [Compound 2], the MIC (commonly the smallest concentration in the dilution series that meets the test's criterion for growth inhibition) in assay [1] (0% mouse serum) was 16 µg/mL (≈ 12.3 µM); in assay [1] (50% mouse serum), over 16 µg/mL; in assay [3] (50% mouse serum) it was 4 µg/mL (≈ 3.08 µM); in assay [4] (0% mouse serum) it was 4 µg/mL (≈ 3.08 µM); in assay [4] (50% mouse serum), over 16 µg/mL. In addition, the “Difference from 24-hr control” value in assay [2] (setting [5]) stood at 0.33 ns log10 CFU/kidneys; in assay [2] (setting [6]) it was 0.37 ns log10 CFU/kidneys. Besides, the figures for the “Mean log10 CFU/kidneys (±SD)” value in assay [2] (setting [5]) and in assay [2] (setting [6]) were 5.10 ± 0.28 log10 CFU/kidneys and 5.14 ± 0.25 log10 CFU/kidneys, respectively.

Consider `CCC(C)CC(C)CCCCCCCCC(=O)NC1CC(O)C(NCCNC(=O)CCCCCCCOCCOCCOCCOCCOCCOCCOCCOC)NC(=O)C2C(O)CCN2C(=O)C(C(O)CCNC(=O)CCCCCCCOCCOCCOCCOCCOCCOCCOCCOC)NC(=O)C(C(O)C(O)c2ccc(O)cc2)NC(=O)C2CC(O)CN2C(=O)C(C(C)O)NC1=O` (stereo not drawn) [Compound 4], for which the MIC was over 16 µg/mL in assay [1] (0% mouse serum); over 16 µg/mL in assay [1] (50% mouse serum); 16 µg/mL (≈ 7.91 µM) in assay [3] (0% mouse serum); 8 µg/mL (≈ 3.96 µM) in assay [4] (0% mouse serum); over 16 µg/mL in assay [4] (50% mouse serum). The entries for the “Difference from 24-hr control” value in assay [2] (setting [5]) and in assay [2] (setting [6]) were 0.48 ns log10 CFU/kidneys and 0.60 ns log10 CFU/kidneys, respectively. Further, the figures for the “Mean log10 CFU/kidneys (±SD)” value in assay [2] (setting [5]) and in assay [2] (setting [6]) were 5.25 ± 0.09 log10 CFU/kidneys and 5.37 ± 0.11 log10 CFU/kidneys, respectively.

Take `CCCCCOc1ccc(-c2ccc(-c3ccc(C(=O)NC4CC(O)C(OCCOCCOCCOCCOC)NC(=O)C5C(O)C(C)CN5C(=O)C(C(C)O)NC(=O)C(C(O)C(O)c5ccc(O)cc5)NC(=O)C5CC(O)CN5C(=O)C(C(C)O)NC4=O)cc3)cc2)cc1` (stereo not drawn) [Compound 5]: the MIC is over 16 µg/mL in assay [1] (0% mouse serum); over 16 µg/mL in assay [1] (50% mouse serum); 0.125 µg/mL (≈ 0.094 µM) in assay [3] (0% mouse serum); 0.5 µg/mL (≈ 0.376 µM) in assay [3] (50% mouse serum); 2 µg/mL (≈ 1.5 µM) in assay [4] (0% mouse serum); 2 µg/mL (≈ 1.5 µM) in assay [4] (50% mouse serum). For the same molecule, the “Difference from 24-hr control” value is on record as 0.00 ns log10 CFU/kidneys in assay [2] (setting [5]) and −1.76*** log10 CFU/kidneys in assay [2] (setting [6]). The “Mean log10 CFU/kidneys (±SD)” value is reported as 4.77 ± 0.06 log10 CFU/kidneys in assay [2] (setting [5]) and 3.01 ± 0.41 log10 CFU/kidneys in assay [2] (setting [6]). Also, in assay [2] (5 mg/kg dose, versus 24-hr infected control), the “Reduction of yeast density in kidneys” value came to 1.76 logs.

With `CCCCCOc1ccc(-c2ccc(-c3ccc(C(=O)NC4CC(O)C(OCCCCCCOCCOCCOCCOCCOCCOCCOCCOC)NC(=O)C5C(O)C(C)CN5C(=O)C(C(C)O)NC(=O)C(C(O)C(O)c5ccc(O)cc5)NC(=O)C5CC(O)CN5C(=O)C(C(C)O)NC4=O)cc3)cc2)cc1` (stereo not drawn) [Compound 7], the MIC in assay [1] (0% mouse serum) was over 16 µg/mL; in assay [1] (50% mouse serum), over 16 µg/mL; in assay [3] (0% mouse serum), 0.25 µg/mL (≈ 0.16 µM); in assay [3] (50% mouse serum), 2 µg/mL (≈ 1.28 µM); in assay [4] (0% mouse serum) it was 2 µg/mL (≈ 1.28 µM); in assay [4] (50% mouse serum) it was over 16 µg/mL. In addition, the results for the “Difference from 24-hr control” value in assay [2] (setting [5]) and in assay [2] (setting [6]) were 0.50 ns log10 CFU/kidneys and 0.31 ns log10 CFU/kidneys, respectively. Moreover, the “Mean log10 CFU/kidneys (±SD)” value was determined as 5.27 ± 0.17 log10 CFU/kidneys in assay [2] (setting [5]) and 5.08 ± 0.19 log10 CFU/kidneys in assay [2] (setting [6]).
